Assay results taken from patent US10548897B2, “KSR antagonists” (Icahn School of Medicine at Mount Sinai, priority 2015, dated 2020).

Key:
[1] = molecular target: KSR2 (purified hKSR2-rMEK1 complex) (Homo sapiens (Human), UniProt Q6VAB6); assay: ATP-biotin probe labeling and inhibitor competition (KSR2 band); type: binding; conditions: ATPbiotin probe labeling competition; 0.1 μM KSR2:MEK1; 27 nM to 20 μM compound; triplicate; read-out: KSR2 IC50
Description: Human KSR2 (residues 634-950) and rabbit MEK1 (residues 1 to 393) were codon optimized for insect cell expression by DNA 2.0. Inserts were expressed with TEV cleavable 6×-His tags from the pFastBac Dual expression vector. Bacmids were used to transfect adherent SF21 cells and viruses were subsequently titred to high levels through serial infections of SF21 cells. […] Briefly, following infections, cells were harvested, lysed, and affinity purified using Co2+ sepharose resin (GoldBio). […] Dialysis retentate was diluted 3 fold and then applied to a Resourse S ion exchange column. […] One-to-one hKSR2-MEK1 complexes were captured in late fractions from an increasing salt gradient. Complexes were later applied to a 120 mL Superdex 200 gel filtration column and finally concentrated to approximately 10 mg/mL before flash freezing for biochemical assays.
The ATP-biotin assay was performed in buffer containing 25 mM Tris pH 7.5, 150 mM NaCl, 10 mM MgCl2, and 2% DMSO. […] In particular, hKSR2-rMEK1 was pre-incubated with 20 μM of the indicated compounds for 15 minutes. Then, ATP-biotin (Pierce Cat. #88310) was added to a final concentration of 2 μM. Reactions were incubated at room temperature for 5 minutes before being stopped by the addition of 6×SDS loading dye. […] Enhanced chemiluminescence signals corresponding to labeling on KSR2 and MEK1 were visualized and quantified using the Biodoc system (Biorad). Relative signals of Streptavidin HRP on bands corresponding to KSR2 and MEK1 in the presence of compounds relative to DMSO controls were used to determine ‘Percent Inhibition of ATP Probe Labeling’.
For the ATP^biotin labeling competition screen, samples were applied to a 4-20% Tris-HCl gel, separated, and then transferred to a nitrocellulose membrane. The membrane was blocked with 5% bovine serum albumin diluted in TBS-T for 30 minutes and subsequently probed with the Pierce™ High Sensitivity Streptavidin-HRP. After several washes, the membranes were visualized using enhanced chemiluminescence on a Biodoc (Biorad).

[2] = test system: KSR-stimulated MEK and ERK phosphorylation; assay: Cell-based reconstitution system monitoring KSR-driven MAPK signaling
Description: To assess the biological function of lead compounds as Ras-MAPK pathway antagonists, a simplified cell-based reconstitution system was developed to directly monitor KSR-driven MAPK signaling. […] Based on similarity in phenotype and direct-binding activity, Compound 21 was identified as a small molecule mimic of KSR alleles that suppress oncogenic Ras mutations.

[3] = molecular target: KSR2:MEK1 phosphorylation by B-RAF (Homo sapiens (Human), UniProt Q6VAB6); assay: RAF phosphorylation assay, KSR2:MEK1 substrate; type: biochemical; conditions: 10 μM compound, 100 μM ATP, pMEK Ser218/Ser222
Method: (§1) FIGS. 9A-9C show phosphorylation of MEK1, KSR2:MEK1, and KSR2^A690F:MEK1 by B-RAF over time in the presence of Compound 21. Relative pMEK was determined by quantification of band intensities from western blots using Image Lab Software 4.1.
(§2) In particular, a variant of B-RAF was identified that could be expressed in high yield from E. Coli and which also retained near wild-type levels of kinase activity towards MEK1. For in vitro kinase assays, indicated concentrations of B-RAF and 1 μM KSR2-MEK1 or 1 μM MEK1 proteins were pre-incubated with 10 μM of indicated compounds for 15 minutes in buffer containing 25 mM Tris pH 7.5, 150 mM NaCl, 10 mM MgCl2, and 2% DMSO. Kinase reactions were initiated by the addition of 100 μM ATP and halted at the indicated times by the addition of 6×SDS loading dye. Samples were examined by western blotting as described for the ATP-biotin experiments and by probing overnight with a MEK1/2 Ser218-Ser222 phospho-specific antibody (Cell signaling). Membranes were visualized using enhanced chemiluminescence on a Biodoc (Biorad) for quantification purposes.

[4] = test system: MEK1 phosphorylation by B-RAF; assay: RAF phosphorylation assay, MEK1 alone (KSR absent); type: biochemical; conditions: 10 μM compound, free MEK1
Method: as §1, §2

[5] = molecular target: KSR2^A690F:MEK1 phosphorylation by B-RAF (Homo sapiens (Human), UniProt Q6VAB6, A690F); assay: RAF phosphorylation assay, KSR2^A690F:MEK1 substrate; type: biochemical; conditions: 10 μM compound
Method: as §1, §2

RAF = assay: Inhibitory activity against purified RAF; type: biochemical
HEK293 cells = assay: FBS-induced ERK activation in serum-starved HEK293 cells; type: cell-based; conditions: 2 h pre-treatment, 5% FBS induction, compared with KSR1 siRNA
Method: FIGS. 10A-10B show KSR1 knockdown and Compound 21 treatment similarly block FBS-induced ERK activation. In FIG. 10A, HEK293 cells were serum starved for 24 hours and simultaneously treated with two independent siRNAs against KSR1. siNTC was used as a scrambled control. After induction with 5% FBS, cells were harvested at […]. In FIG. 10B, HEK293 cells were similarly serum starved and pre-treated with Compound 21 for 2 h before induction. The cells were then induced with FBS as in FIG. 10A.

[6] = test system: MAPK pathway readouts (pERK, pMEK, pRSK) in A375 and HCT-116; assay: Western blot of MAPK pathway readouts, treatment with trametinib combinations; type: cell-based
HCT-116 = assay: Cell viability, combination with trametinib, HCT-116; type: cell-based
Method: (§3) High BLISS scores indicate statistically significant synergy between Compound 21 and trametinib specifically within K-Ras mutant cells. Numbers listed within synergy matrices, representing % growth inhibition relative to DMSO controls, are mean of two replicates. Insets highlight dose responses of trametinib in the absence or presence of 1 μM Compound 21.
FIGS. 13A-13D show data validating that Compound 21 is synergistic with trametinib in Ras-mutant cells. […] FIGS. 13C-13D show log of the combination index (CI) graphs of Compound 21 in combination with trametinib in HCT-116 vs. SK-MEL-239 cells as compared to the fractional effect (Fa).
(§4) The viability ratio represented the viability observed for treated (inhibitors) relative to controls (DMSO).

A549 = assay: Cell viability, combination with trametinib, A549; type: cell-based; conditions: A549 (Ras-mutant)
Method: as §3, §4

[7] = test system: ERK phosphorylation in HCT-116 cell line; assay: ERK phosphorylation dose response to trametinib, HCT-116; type: cell-based; conditions: HCT-116 (Ras-mutant)
[8] = test system: ERK phosphorylation in SK-MEL-239 cell line; assay: ERK phosphorylation dose response to trametinib, SK-MEL-239; type: cell-based; conditions: SK-MEL-239 (RAF-mutant)

COc1cc2ncnc(Nc3ccc(Oc4ccccc4)cc3C)c2cc1OC [Compound 21, 6,7-Dimethoxy-N-(2-methyl-4-phenoxyphenyl)quinazolin-4-amine 2,2,2-trifluoroacetate]
IC50 [1]: 120 ± 23 nM
suppression of KSR-stimulated MEK and ERK phosphorylation ([2]; KSR expression-dependent MAPK signaling): suppressed
suppression of KSR-stimulated MAPK signaling with active site mutant KSR^A690F ([2]; KSR^A690F mutant): greatly diminished the activity
KSR-stimulated MEK phosphorylation by RAF [3]: significantly reduced
MEK phosphorylation by RAF, KSR absent [4]: essentially inactive
MEK phosphorylation by RAF, KSR2^A690F mutant [5]: essentially inactive
inhibitory activity against purified RAF (RAF): lacked detectable inhibitory activity
effect on FBS-induced ERK activation (HEK293 cells): mimic the effects of RNAi based knockdown of KSR1
MAPK pathway inhibition (pERK, pMEK, pRSK), single agent ([6]; alone, compared with Compound 21 + trametinib co-treatment): did not display the same pathway inhibition
MAPK pathway inhibition (pERK, pMEK, pRSK) in combination with trametinib ([6]; combined with trametinib, A375 and HCT-116): reduction in MAPK pathway readouts
shift of cell viability dose response to trametinib (HCT-116; HCT-116 (Ras-mutant)): shifted the cell viability dose response to trametinib
combination index (CI) with trametinib (HCT-116; HCT-116, negative log CI over broad Fa range): strong synergy
shift of cell viability dose response to trametinib (A549): shifted the cell viability dose response to trametinib
enhancement in the IC90 of trametinib on ERK phosphorylation [7]: 2 fold
enhancement in the IC90 of trametinib on ERK phosphorylation [8]: not
